Source: ChEMBL document CHEMBL1131752, “Binding and catalysis by yeast aldose reductase: a substrate-analog approach with new aldose derivatives” (Bioorg Med Chem Lett, 1999)

Legend:
[1] = tested on: Xylose reductase (Candida tenuis); experiment: The catalytic constant(kcat) for the NADH-catalyzed by aldose reductase from candida tenuis; settings: Yamadazyma tenuis
[2] = tested on: Xylose reductase (Candida tenuis); experiment: Ratio of catalytic constant (kcat)/Kinetic constant(Km)

| Compound | k cat [1] | k cat/Km [2] |
| --- | --- | --- |
| OC1O[C@H](CF)[C@H](O)[C@H]1O (some centres undefined) | 22.3 s⁻¹ | 34300 M⁻¹ s⁻¹ |
| CC[C@H]1OC(O)[C@H](O)[C@H]1O (some centres undefined) | 20.6 s⁻¹ | 38900 M⁻¹ s⁻¹ |
| C[C@H]1OC(O)[C@H](O)[C@H]1O (some centres undefined) | 21.6 s⁻¹ | 23200 M⁻¹ s⁻¹ |
| [N-]=[N+]=NC[C@H]1OC(O)[C@H](O)[C@H]1O (some centres undefined) |  | 1690 M⁻¹ s⁻¹ |
| OC1OC(C(F)CF)C(O)C1O (centres undefined) | 21.4 s⁻¹ | 15300 M⁻¹ s⁻¹ |
